In US20020032183A1, “Use of (di-substituted-phenyl)-pyrimidinyl-imidazole derivatives as JNK-inhibitors” (priority 2000, published 2002):
Structures can show the parent of a compound that is named as a salt.

Columns and labels:
JNK3α1 = target: T1, JNK3α1 (Homo sapiens, UniProt P53779); assay: Biochemical determination of inhibition of JNK3α1; details: truncated JNK3α1, 1 μM ATP, 0.5 μM GST-ATF2, 30° C., 30 min
T1 construct: Truncated JNK3α1 (amino acids 39-422) was expressed in E. coli; made in house; host or cells: E. coli
Protocol: Activation reactions were incubated at 30° C. for 2 h.
Enzyme inhibition studies were performed at 30° C. for 30 min with 0.5 μM GST-ATF2, 1 μM ATP, 1 nM activated JNK3α1 and compound ranging from 30 pM to 100 μM. Reactions were carried out in 100 μL volumes containing the final concentrations of the following: 25 mM HEPES (Sigma) pH 7.4; 10 mM MgCl2 (Sigma); 2 mM DTT (Sigma); 20 mM β-glycerophosphate (Sigma); 0.1 mM Na3VO4 (Sigma); 2 μCi [γ-^33P]ATP (2000 Ci/mmol; 1 Ci=37 GBq) (Amersham Pharmacia Biotech, Piscataway, N.J.). Reactions were stopped with 100 μL 100 mM EDTA/15 mM sodium pyrophosphate. Immobilon™-P 96-well plates (Millipore MAIPNOB™ 10, available from the Millipore Corp., Bedford, Mass.) were pretreated with 100 μL methanol, followed by 100 μL 15 mM sodium pyrophosphate. Fifty μL of the stopped reaction was spotted in triplicate on the Immobilon™-P 96-well plate. The samples were vacuum-filtered and washed three times each with 100 μL 75 mM H3PO4 to remove unincorporated [γ-^33P]ATP. After the third H3PO4 wash and a final filtration step to remove H3PO4, 50 μL of Microscint™-20 (Packard BioScience Ltd., Pangbourne, Berkshire, U.K.) was added to each well and samples were analyzed on a Packard Topcount™ liquid scintillation counter. IC50 values were determined by fitting the data to the equation for a four parameter logistic.

[1] = system: Rat superior cervical ganglion neurons; assay: Sympathetic neuronal survival assay (no NGF exposure; GAP-43 ELISA and cell counts); assay type: cell-based; details: NGF 1 ng/ml
Protocol: Activation of c-jun-N-terminal kinase (JNK) has been implicated in apoptosis in sympathetic neurons. An inhibitor of JNK, Example 2, was tested for neuroprotective effects in two models of sympathetic neuronal cell death.
In the first model, ganglia were dissociated and plated directly into culture plates in the presence of compound for 48 hours, then fixed and survival assayed using an ELISA for GAP-43. This model will hereafter be referred to as the ‘survival assay’.
Ganglia were enzymatically dissociated using 0.25% trypsin for 45 minutes. The trypsin was then inhibited using Dulbecco's MEM (DMEM) supplemented with 10% fetal bovine serum, and the cells mechanically triturated using a pipette tip to form a single cell suspension. Neurons in the suspension were counted using a haemocytometer, and plated at a density of 3000-5000 neurons per well in poly-D-lysine and laminin coated 96 well tissue culture clusters in DMEM supplemented with B27 serum substitute. Cultures were then incubated at 37° C./5% CO2. One hour following plating, cultures were either treated with NGF 25 ng/ml or with L-790,984 at a range of concentrations for the NGF deprivation and survival assays respectively.
Cultures for the NGF deprivation assay were returned to the incubator for 4 days. Following this, the medium was aspirated, plates washed once with DMEM/B27, and the cultures treated with Example 2 at concentrations ranging from 1 nM to 10 μM, together with an anti-NGF blocking antibody at 250 ng/ml. Cultures were then returned to the incubator for a further 72 hours prior to fixation and survival quantification. Cultures treated with Example 2 immediately for the survival assay were returned to the incubator for 48 hours; cultures were then fixed and survival quantified using the GAP-43 ELISA.
Cultures were fixed by the addition of an equal volume 4% paraformaldehyde to each well for 10 minutes; this was then aspirated, and replaced by a further volume of 4% paraformaldehyde for a further 20 minutes at room temperature. Plates were then washed three times with PBS/0.3% TX100, and non-specific binding sites blocked by the addition of 5% normal horse serum (NHS) in PBS/0.3% TX100. Plates were incubated at room temperature for one hour, then the blocking serum was aspirated without washing and replaced with primary antibody. The primary antibody used was a mouse monoclonal antibody raised against Growth Associated Protein 43 (Sigma), prepared at a dilution of 1:500 in PBS/0.3% TX100/5% NHS. Primary antibody was added to all sample wells, with four control wells returned to blocking serum to act as minus primary control. Plates were then refrigerated overnight at 4° C. The next day, plates were washed three times with PBS/0.3 TX100 and secondary antibody added. The secondary antibody used was peroxidase conjugated sheep anti-mouse IgG, and was added at a dilution of 1:1000 in PBS/0.3% TX100/5% NHS. Plates were incubated for 1 hour at room temperature, then washed three times with PBS/0.3% TX100, and K-Blue insoluble peroxidase substrate added for 30 minutes at room temperature. The optical density of the plates was then read at 650 nm, and the survival of neurons calculated and expressed as percentage of the control response.
Cell counts were performed on one sample plate for each model of sympathetic neuronal cell death, by the addition of a tertiary antibody to the plate, followed by avidin-biotin complex and an insoluble peroxidase substrate. Following quantification of optical density, plates were washed three times in PBS/0.3% TX100, and non-specific sites blocked using PBS/0.3% TX100/5% normal rabbit serum (“NRS”). Plates were incubated for one hour at room temperature, then the blocking serum was aspirated and replaced with biotinylated rabbit anti-sheep IgG at a dilution of 1:500 in PBS/0.3% TX10O/5% NRS. […]

T1 sequence (P53779 39-422 isoform P53779-2): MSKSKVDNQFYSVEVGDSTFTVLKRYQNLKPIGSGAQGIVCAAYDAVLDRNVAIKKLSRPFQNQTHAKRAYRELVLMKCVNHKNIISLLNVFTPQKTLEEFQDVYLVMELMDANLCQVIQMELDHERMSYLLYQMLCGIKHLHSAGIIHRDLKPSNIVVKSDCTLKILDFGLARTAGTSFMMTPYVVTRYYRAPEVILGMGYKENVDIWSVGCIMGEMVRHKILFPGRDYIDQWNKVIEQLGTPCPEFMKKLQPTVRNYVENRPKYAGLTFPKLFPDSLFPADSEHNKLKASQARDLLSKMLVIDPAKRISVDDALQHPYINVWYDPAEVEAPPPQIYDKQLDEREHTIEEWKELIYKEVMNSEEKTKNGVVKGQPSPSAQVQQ

`CCCn1c(C2CCNCC2)nc(-c2ccc(Cl)c(Cl)c2)c1-c1ccnc(NC2CC2)n1` [Example 1, Cyclopropyl-{4-[5-(3,4-dichlorophenyl)-2-piperidin-4-yl-3-propyl-3H-imidazol-4-yl]-pyrimidin-2-yl}amine] showed an IC50 (JNK3α1) of 8 nM.

With `Clc1ccc(-c2nc(C3CCNCC3)n(CC3CC3)c2-c2ccnc(NC3CC3)n2)cc1Cl` [Example 7, Cyclopropyl-{4-[3-cyclopropylmethyl-5-(3,4-dichlorophenyl)-2-piperidin-4-yl-3H-imidazol-4-yl]-pyrimidin-2-yl}amine bis trifluoroacetic acid salt] the IC50 (JNK3α1) was 4 nM.

B1: NGF: NGF at 1 ng/ml, comparison group in the sympathetic neuronal survival assay; these neurons are NGF dependent (protein, UniProt P01139 122-241, looked up)
Beta-nerve growth factor: SSTHPVFHMGEFSVCDSVSVWVGDKTTATDIKGKEVTVLAEVNINNSVFRQYFFETKCRASNPVESGCRGIDSKHWNSYCTTTHTFVKALTTDEKQAAWRFIRIDTACVCVLSRKATRRG
With B1 the “Survival, ELISA Data Mean” value ([1]; GAP-43 ELISA) was 618.55 and the “Survival, Cell Counts Mean” value ([1]; immunostained neurons per well) was 587.00.
